# Tests used:
# T. cruzi Arequipa strain [1] = assay: Monitoring of acute parasitaemia by counting in infected BALB/c mice; type: in vivo, Trypanosoma cruzi; details: acute infection
# Description: (§1) All animal work (Scheme 1) and maintenance was performed under RD53/2013 and approved by the Ethics Committee on Animal Experimentation (CEEA) of the University of Granada, Spain. Female BALB/c mice (aged 10–12 weeks and 20–22 g) were used in the subsequent in vivo assays.
# (§2) Infection was carried out by intraperitoneal inoculation of 5 × 10^5 BTs of T. cruzi Arequipa strain per mouse in 0.2 mL PBS [26]. The infection was monitored and on the 10th day post-infection (dpi), when BTs were visible in the bloodstream, the infection was confirmed.
# (§3) Mice were divided into four groups (n = 3 per group): 0, negative control group (uninfected and untreated mice); I, positive control group (infected and untreated mice); II, BZN group (mice infected and treated with BZN); III, 15 group (mice infected and treated with 15).
# (§4) The treatment for mice treated in the acute and chronic CD began when the infection was confirmed (10th dpi) and was stablished that the animals had entered the chronic CD (75th dpi), respectively (Scheme 1). Compound 15 and BZN were orally administered for 5 consecutive days at a dose of 20 mg·Kg^−1·day^−1.
# […]. The fresh blood microscopic examination was performed from the 7th day until the day when parasitaemia was not detected (Scheme 1).
# [2] = tested on: epimastigotes of T. cruzi Arequipa strain; assay: Mitochondrial membrane potential by flow cytometry (rhodamine 123); type: cell-based, Trypanosoma cruzi; details: compounds at IC25 concentrations, 72 h; KCN 10 mM, 40 min; mean of three ± SD
# [3] = Clinical analysis of heart, kidney and liver markers in serum of treated mice; type: in vivo, BALB/c mice; details: n = 3
# Description: as §2, §3, §4
# Blood samples were collected in several dpi (Scheme 1) and processed according the method previously reported to obtain serum. Serum samples were then aliquoted to ELISA test and clinical analysis.
# Heart, kidney and liver markers were measured from blood in several dpi (Scheme 1) with Cromakit® as previously reported. Mean and standard deviations were calculated using the levels measured for different populations of sera (n = 15, n = 3), and the confidence interval were also calculated based on a confidence level of 95% (100 × (1 − α) = 100 × (1 − 0.05)).
# [4] = tested on: T. cruzi Tulahuen strain amastigotes; assay: Screening against intracellular amastigotes in Vero cells, Tulahuen strain (Giemsa counting); type: cell-based, Trypanosoma cruzi; details: Trypanosoma cruzi, TULAHUEN; amastigotes in Vero cells; 72 h; mean of three ± SD
# Description: (§5) TINF/CH/1956/Tulahuen, DTU VI [26]—were grown at 28 °C in Gibco® RPMI 1640 Medium supplemented as previously reported, and used for in vitro screening. Trypanocidal activity against amastigotes was tested as previously reported. In brief, bloodstream trypomastigotes (BTs), obtained by cardiac puncture from infected BALB/c mice, were used to infect 1 × 10^4 Vero cells·well^−1 in 24-well plates with rounded coverslips at a multiplicity of infection (MOI) ratio of 10:1. After 24 h of infection, non-internalized trypomastigotes were washed and the infected cells were treated by adding the compounds in serial dilutions from 50 to 0.5 µM in […] for 72 h. BZN and untreated growth controls were also included in triplicate. Later, the number of amastigotes and infected cells were determined in Giemsa stained preparations by analysing 500 host cells randomly distributed in microscopic fields. The trypanocidal activity was expressed as the IC50 using GraphPad Prism 6 software (version 6.07).
# [5] = tested on: T. cruzi Arequipa strain amastigotes; assay: Screening against intracellular amastigotes in Vero cells, Arequipa strain (Giemsa counting); type: cell-based, Trypanosoma cruzi
# Description: as §5
# [6] = tested on: T. cruzi SN3 strain amastigotes; assay: Screening against intracellular amastigotes in Vero cells, SN3 strain (Giemsa counting); type: cell-based, Trypanosoma cruzi; details: Trypanosoma cruzi; amastigotes in Vero cells; 72 h; mean of three ± SD
# Description: as §5
# [7] = tested on: T. cruzi Arequipa strain trypomastigotes; assay: Screening against bloodstream trypomastigotes, Arequipa strain (resazurin); type: cell-based, Trypanosoma cruzi; details: Trypanosoma cruzi; trypomastigotes; 24 h + 4 h resazurin; mean of three ± SD
# [8] = type: in vivo, BALB/c mice; details: oral 20 mg/Kg/day for 5 days; acute and chronic infections
# Description: as §1, §2, §3, §4
# [9] = tested on: T. cruzi Tulahuen strain epimastigotes; assay: Screening against extracellular epimastigotes, Tulahuen strain (resazurin); type: cell-based, Trypanosoma cruzi; details: Trypanosoma cruzi, TULAHUEN; epimastigotes; 48 h treatment + 24 h resazurin; mean of three ± SD; read-out: Activity IC50 T. cruzi Tulahuen Strain E
# Description: Three different T. cruzi […] strains—MHOM/Pe/2011/Arequipa, discrete typing unit (DTU) V [26]; IRHOD/CO/2008/SN3, DTU I [27]; TINF/CH/1956/Tulahuen, DTU VI [26]—were grown at 28 °C in Gibco® RPMI 1640 Medium supplemented as previously reported, and used for in vitro screening.
# Trypanocidal activity against epimastigotes was tested as previously reported. In brief, 5 × 10^5 mL^−1 epimastigotes culture medium were treated by adding the compounds in serial dilutions from 100 to 0.2 µM in 96-well plates (200 µL·well^−1) for 48 h. BZN and untreated growth control were also included in triplicate. Later, 20 μL of resazurin sodium salt (Sigma-Aldrich, St. Louis, MO, USA) was added, and the plates were incubated for another 24 h. Finally, the absorbance of the wells was measured at 570/600 nm and related to the control. The trypanocidal activity was expressed as the IC50 (inhibitory concentration 50) value using GraphPad Prism 6 software.
# T. cruzi Arequipa strain [10] = assay: Nested amastigotes detection by PCR in nine target organs/tissues of infected BALB/c mice; type: in vivo, Trypanosoma cruzi; details: oral 20 mg/Kg/day for 5 days
# Description: as §2, §3, §4
# After CP-induced immunosuppression, the mice were euthanised using CO2 by exsanguination via cardiac puncture, and blood was collected. Then, 9 target organs/tissues were harvested: adipose, bone marrow, brain, oesophagus, heart, lung, muscle, spleen, and stomach. These organs/tissues were perfused with pre-warmed PBS to avoid contamination with BTs, and stored at −80 °C. In addition, spleens were weighed to assess splenomegaly.
# DNA extraction of the target organs/tissues was performed using Wizard® Genomic DNA Purification Kit. DNA was subjected to amplification by PCR based on the sequence of the T. cruzi splice leader (SL) intergenic region using two published primers (TC and TC1) that allow the amplification of a 300 base pairs fragment in different biological samples. […]
# T. cruzi Arequipa strain [11] = assay: Infection reactivation by cyclophosphamide immunosuppression in infected BALB/c mice; type: in vivo, Trypanosoma cruzi; details: oral 20 mg/Kg/day for 5 days, related to control group
# [12] = tested on: T. cruzi Tulahuen strain trypomastigotes; assay: Screening against bloodstream trypomastigotes, Tulahuen strain (resazurin); type: cell-based, Trypanosoma cruzi; details: Trypanosoma cruzi, TULAHUEN; trypomastigotes; 24 h + 4 h resazurin; mean of three ± SD
# [13] = treatment in acute phase, 16th dpi (2 days after treatment)
# [14] = treatment in acute phase, necropsy day
# [15] = treatment in chronic phase, 81th dpi (2 days after treatment)
# [16] = treatment in chronic phase, necropsy day
# [17] = treatment in the acute infection
smiles,measurement,setting,value
"O=C(Cn1ccnc1[N+](=O)[O-])NCc1ccccc1 [BZN, benznidazole, reference compound]",parasitaemia reduction on the day of maximum parasitaemia,"T. cruzi Arequipa strain [1]; oral 20 mg/Kg/day for 5 days from 10th dpi, vs untreated control",~ 65%
same,"parasitaemia undetectable, days before control mice","T. cruzi Arequipa strain [1]; oral 20 mg/Kg/day for 5 days, control detectable up to 50 dpi",3 days
same,Inhibition on mitochondrial membrane potential with respect to untreated epimastigotes,[2],35.4%
same,"ALP, variation over the range",[3]; [13],++ (20-30% increase/decrease over the range)
same,"ALT/GPT, variation over the range",[3]; [13],++++ (˃ 40% increase/decrease over the range)
same,"AST/GOT, variation over the range",[3]; [13],++++ (˃ 40% increase/decrease over the range)
same,"CK-MB, variation over the range",[3]; [13],= (variation ≤ 10%)
same,"LDH, variation over the range",[3]; [13],= (variation ≤ 10%)
same,"Total bilirubin, variation over the range",[3]; [13],++ (20-30% increase/decrease over the range)
same,"Urea, variation over the range",[3]; [13],--- (30-40% increase/decrease over the range)
same,"Uric acid, variation over the range",[3]; [13],---- (˃ 40% increase/decrease over the range)
same,"ALP, variation over the range",[3]; [14],= (variation ≤ 10%)
same,"ALT/GPT, variation over the range",[3]; [14],= (variation ≤ 10%)
same,"AST/GOT, variation over the range",[3]; [14],++++ (˃ 40% increase/decrease over the range)
same,"CK-MB, variation over the range",[3]; [14],= (variation ≤ 10%)
same,"LDH, variation over the range",[3]; [14],= (variation ≤ 10%)
same,"Total bilirubin, variation over the range",[3]; [14],+ (10-20% increase/decrease over the range)
same,"Urea, variation over the range",[3]; [14],--- (30-40% increase/decrease over the range)
same,"Uric acid, variation over the range",[3]; [14],= (variation ≤ 10%)
same,"ALP, variation over the range",[3]; [15],++++ (˃ 40% increase/decrease over the range)
same,"ALT/GPT, variation over the range",[3]; [15],++ (20-30% increase/decrease over the range)
same,"AST/GOT, variation over the range",[3]; [15],++ (20-30% increase/decrease over the range)
same,"CK-MB, variation over the range",[3]; [15],-- (20-30% increase/decrease over the range)
same,"LDH, variation over the range",[3]; [15],--- (30-40% increase/decrease over the range)
same,"Total bilirubin, variation over the range",[3]; [15],+++ (30-40% increase/decrease over the range)
same,"Urea, variation over the range",[3]; [15],--- (30-40% increase/decrease over the range)
same,"Uric acid, variation over the range",[3]; [15],---- (˃ 40% increase/decrease over the range)
same,"ALP, variation over the range",[3]; [16],++ (20-30% increase/decrease over the range)
same,"ALT/GPT, variation over the range",[3]; [16],= (variation ≤ 10%)
same,"AST/GOT, variation over the range",[3]; [16],+ (10-20% increase/decrease over the range)
same,"CK-MB, variation over the range",[3]; [16],= (variation ≤ 10%)
same,"LDH, variation over the range",[3]; [16],-- (20-30% increase/decrease over the range)
same,"Total bilirubin, variation over the range",[3]; [16],++ (20-30% increase/decrease over the range)
same,"Urea, variation over the range",[3]; [16],--- (30-40% increase/decrease over the range)
same,"Uric acid, variation over the range",[3]; [16],-- (20-30% increase/decrease over the range)
same,IC50,[4],10 ± 0.8 µM
same,number of amastigotes per Vero cell,"[5]; 50 μM, 72 h of exposure",practically zero
same,IC50,"[5]; Trypanosoma cruzi, amastigotes in Vero cells, 72 h, mean of three ± SD",8.3 ± 0.7 µM
same,IC50,[6],16.6 ± 1.4 µM
same,IC50,[7],12.4 ± 1.1 µM
same,death or body mass loss of treated mice,[8],none of the mice died or lost more than 10% body mass
same,IC50,[9],19.7 ± 1.7 µM
same,"clearance of nested parasites in target organs/tissues (parasite-free organs/tissues, PCR)",T. cruzi Arequipa strain [10]; [17],33%
same,"clearance of nested parasites in target organs/tissues (parasite-free organs/tissues, PCR)",T. cruzi Arequipa strain [10]; treatment in the chronic infection,56%
same,reactivation of parasitaemia after immunosuppression,T. cruzi Arequipa strain [11]; [17],75%
same,reactivation of parasitaemia after immunosuppression,T. cruzi Arequipa strain [11]; treatment in the chronic infection (from 75th dpi),51%
same,IC50,[12],15.1 ± 1.3 µM

# From publication PMC9863987, “Identification of Aryl Polyamines Derivatives as Anti-Trypanosoma cruzi Agents Targeting Iron Superoxide Dismutase” (Pharmaceutics, 2022)
